Results on 14 compounds are retold here after publication PMC7850479, “A drug repurposing screen identifies hepatitis C antivirals as inhibitors of the SARS-CoV2 main protease” (PLoS ONE, 2021).

The target of assay [1] is T1, SARS-CoV-2 Mpro (Severe acute respiratory syndrome coronavirus 2, UniProt P0DTD1). As to the kind of experiment: Dose validation assay (10-point dose-response), fluorescent Mpro protease assay with Ac-Abu-Tle-Leu-Gln-AFC. It counts as biochemical. The conditions noted are these: for IC50 / Hill Slope: 80nM Mpro, 32μM Ac-Abu-Tle-Leu-Gln-AFC, n = 3, 4-parameter nonlinear regression; for IC50: 10 concentrations 150 μM to 7.6 nM.

Assay [2] addresses T1, SARS-CoV-2 Mpro. In kind it is biochemical.
The subject of assay [3] is HCV protease. As to conditions: cited from earlier work.
For assay [4], the system named is SARS-CoV-2. The conditions noted are these: cellular model of viral replication; read-out: EC50, SARS-CoV-2 antiviral activity; cited from earlier work.
In assay [5] the test system is NS3 protease variants. The conditions noted are these: HCV NS3 single amino acid mutations; cited from earlier work.
For assay [6], the system named is Covid-19 patients. Set-up: method as in PMID 32445440. The conditions noted are these: cohort of 1062 patients, placebo control 15 days; cited from earlier work.
The mark [7] stands for this setting: Z-score in the protease inhibition assay, ΔRFU at 10 minutes, 50 μM compound, substrate not stated.

Where two headings read alike, the source gives them in different places. Residues, ends and D or L forms follow the SMILES beside them.

`O=c1c2ccccc2[se]n1-c1ccccc1` [Ebselen]: the “dose response against Mpro cleavage of substrate Ac-Abu-Tle-Leu-Gln-AFC” value in assay [1] (result in words, S1 Fig) is recorded as “failed to show a significant dose response”. Regarding `CCOC(=O)c1ccc(N2NC(=O)/C(=C/c3ccc([N+](=O)[O-])o3)C2=O)cc1` [PYR-41], in assay [1], half-maximal inhibition (IC50) required 17.4 µM and the “Hill Slope” value was found to be 0.9933. For `C[C@H](NC(=O)[C@@H](Cc1c[nH]c2ccccc12)NC(=O)[C@@H](N)Cc1cnc[nH]1)C(=O)N[C@@H](Cc1c[nH]c2ccccc12)C(=O)N[C@H](Cc1ccccc1)C(=O)N[C@@H](CCCCN)C(N)=O` [U-75799E] (HELM PEPTIDE1{H.[dW].A.W.[dF].K.[am]}$$$$V2.0), the Z10 in assay [2] is listed as 1.044.

For `OC[C@H]1O[C@H]([S-])[C@H](O)[C@@H](O)[C@@H]1O.[Au+]` [aurothioglucose], in assay [1], the IC50 turned out to be 13.3 µM and the “Hill Slope” value is listed as 1.496. Turning to `CC(C)(C)NC(=O)N[C@H](C(=O)N1C[C@H]2[C@@H]([C@H]1C(=O)NC(CC1CCC1)C(=O)C(N)=O)C2(C)C)C(C)(C)C` (stereo partly shown) [boceprevir], in assay [3], the IC50 is < 0.09 µM. In addition, the 50% effective concentration (EC50) in assay [4] was 1.95 ± 1.62 µM. The “reduction in activity caused by single amino acid mutations” value in assay [5] is given as “up to 120 fold”. Moreover, in assay [1], the “Hill Slope” value was 0.4123. For the same compound, in assay [1] (~1 μM for Mpro versus below 90 nM for HCV protease), the “reduction in potency against enzymatic activity, SARS-CoV-2 Mpro compared to HCV protease” value was 10 fold. Consider `CCCC[C@@H](C=O)NC(=O)[C@H](CC(C)C)NC(=O)OCc1ccccc1` [calpeptin], for which the “Hill Slope” value in assay [1] is 1.009. For the compound `COc1ccc2c(O[C@@H]3C[C@H]4C(=O)N[C@]5(C(=O)O)C[C@H]5/C=C\CCCCC[C@H](NC(=O)OC5CCCC5)C(=O)N4C3)cc(-c3csc(NC(C)C)n3)nc2c1` [ciluprevir], in assay [1], 20.8 µM corresponded to half-maximal inhibition (IC50) and the “Hill Slope” value is on record as 1.133. Regarding `CC(=O)N(CC(O)CN(C(C)=O)c1c(I)c(C(=O)NCC(O)CO)c(I)c(C(=O)NCC(O)CO)c1I)c1c(I)c(C(=O)NCC(O)CO)c(I)c(C(=O)NCC(O)CO)c1I` (stereo not shown) [iodixanol], the Z10 in assay [2] (setting [7]) is -0.9551. In the case of `CCCC[C@H](NC(=O)[C@@H]1[C@@H]2[C@H](CN1C(=O)[C@@H](NC(=O)NC1(CS(=O)(=O)C(C)(C)C)CCCCC1)C(C)(C)C)C2(C)C)C(=O)C(=O)NC1CC1` [narlaprevir], in assay [1], the “Hill Slope” value came to 0.9106.

`CCC(CC)COC(=O)[C@H](C)N[P@](=O)(OC[C@H]1O[C@@](C#N)(c2ccc3c(N)ncnn23)[C@H](O)[C@@H]1O)Oc1ccccc1` [remdesivir]: the period of recovery in assay [6] is given as 10 days. For `CCC[C@H](NC(=O)[C@@H]1[C@H]2CCC[C@H]2CN1C(=O)[C@@H](NC(=O)[C@@H](NC(=O)c1cnccn1)C1CCCCC1)C(C)(C)C)C(=O)C(=O)NC1CC1` [telaprevir], the “Hill Slope” value in assay [1] is given as 1.062. dalargin: the Z10 in assay [2] (setting [7]) is listed as -1.032. Consider desmopressin-acetate, for which the Z10 in assay [2] (setting [7]) is recorded as -0.4942. Take hemin: in assay [1], the IC50 was 9.68 µM and the “Hill Slope” value came out at 1.354.
